Results reported in US5968801A, “Polyhydroxyalkanoate depolymerase and process for producing the same” (Taisei Corporation, priority 1997, dated 1999).
pIC50: −log10 of the molar value.

Target: PHA depolymerase
Type: biochemical, Corynebacterium aquaticum IM-1
Conditions: pH 6.5; read-out: IC50 (concentration of inhibitor at which the enzyme activity was inhibited by 50%)

Compound: O[C@H](CS)[C@H](O)CS (racemic) [DTT, dithiothreitol]
- pIC50: 1.14

Compound: O=S(=O)(F)Cc1ccccc1 [PMSF, Phenylmethylsulfonyl fluoride]
- pIC50: 2.72
